Assay results: ChEMBL document CHEMBL1201862, “PubChem BioAssay data set” (2004)
One block for each compound: values may come before it. Active and inactive are the calls of the source.

Columns and labels:
[1] = molecular target: T1, Aminopeptidase N (Plasmodium falciparum FcB1/Columbia, UniProt O96935); assay: P. falciparum M1AAP inhibitors, biochemical, fluorogenic H-Leu-NHMec substrate, 1536-well (AID 1445); design: species or system Plasmodium falciparum 3D7, 3D7
T1 sequence (O96935 whole entry): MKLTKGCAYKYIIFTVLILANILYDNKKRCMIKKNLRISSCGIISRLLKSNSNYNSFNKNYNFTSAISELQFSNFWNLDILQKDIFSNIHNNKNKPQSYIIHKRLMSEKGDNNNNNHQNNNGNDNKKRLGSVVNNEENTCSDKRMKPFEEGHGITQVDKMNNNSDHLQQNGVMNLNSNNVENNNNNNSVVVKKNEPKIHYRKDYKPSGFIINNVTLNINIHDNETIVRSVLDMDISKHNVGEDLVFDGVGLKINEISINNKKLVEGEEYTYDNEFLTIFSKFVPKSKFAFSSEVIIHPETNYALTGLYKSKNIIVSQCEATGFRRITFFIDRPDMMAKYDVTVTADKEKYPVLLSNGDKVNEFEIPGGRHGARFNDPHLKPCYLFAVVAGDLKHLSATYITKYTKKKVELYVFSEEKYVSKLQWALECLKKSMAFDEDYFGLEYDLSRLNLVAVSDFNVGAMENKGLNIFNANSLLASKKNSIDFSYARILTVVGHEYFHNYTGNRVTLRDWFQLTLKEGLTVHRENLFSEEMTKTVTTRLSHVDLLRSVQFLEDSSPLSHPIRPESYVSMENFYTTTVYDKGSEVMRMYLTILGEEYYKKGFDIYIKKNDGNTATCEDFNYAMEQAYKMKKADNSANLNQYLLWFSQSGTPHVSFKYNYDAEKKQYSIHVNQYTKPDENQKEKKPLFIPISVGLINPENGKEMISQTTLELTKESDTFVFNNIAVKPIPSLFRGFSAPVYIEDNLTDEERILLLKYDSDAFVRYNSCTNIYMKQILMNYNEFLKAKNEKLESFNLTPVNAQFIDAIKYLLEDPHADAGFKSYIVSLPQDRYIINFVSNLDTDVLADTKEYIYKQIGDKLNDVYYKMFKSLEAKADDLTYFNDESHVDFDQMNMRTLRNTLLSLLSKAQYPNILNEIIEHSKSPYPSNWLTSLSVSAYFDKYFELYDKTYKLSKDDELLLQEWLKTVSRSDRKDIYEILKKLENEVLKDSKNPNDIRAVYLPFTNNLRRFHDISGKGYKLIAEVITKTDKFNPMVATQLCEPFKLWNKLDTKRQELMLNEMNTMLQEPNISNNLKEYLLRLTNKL

[2] = system: H9c2; assay: cells; format: functional, cell-based; conditions: Rattus norvegicus, H9c2, Myocardium;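 further: confirmatory concentration-response retest of ultra-high-throughput screening hits for modulation of myocardial damage; cell death induced by hydrogen peroxide oxidative stress; compound pretreatment for 60 min then peroxide exposure for 2 h; potency is for protecting the cells against peroxide damage rather than for killing them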
[3] = molecular target: T2, RNA-binding protein pos-1 (Caenorhabditis elegans, UniProt G5EF15); assay: inhibitors of POS-1/mex-3 RNA binding, dose response, biochemical, fluorescence polarization (AID 1964);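 further: purified POS-1 fused to maltose binding protein made in E. coli; potency of compounds blocking POS-1 binding to fluorescent RNA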
T2 sequence (G5EF15 whole entry): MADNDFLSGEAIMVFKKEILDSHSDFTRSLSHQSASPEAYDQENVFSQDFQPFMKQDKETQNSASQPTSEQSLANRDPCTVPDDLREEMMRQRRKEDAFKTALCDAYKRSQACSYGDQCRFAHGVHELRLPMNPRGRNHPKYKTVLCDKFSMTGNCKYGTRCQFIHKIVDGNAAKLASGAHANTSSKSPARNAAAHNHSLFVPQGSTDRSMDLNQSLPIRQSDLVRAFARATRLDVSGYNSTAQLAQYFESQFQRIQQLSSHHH

[4] = molecular target: T3, Zinc finger protein mex-5 (Caenorhabditis elegans, UniProt Q9XUB2); assay: MEX-5/TCR-2 RNA interaction inhibitors, dose response, biochemical, C. elegans, fluorescence polarization (AID 1960)
T3 sequence (Q9XUB2 whole entry): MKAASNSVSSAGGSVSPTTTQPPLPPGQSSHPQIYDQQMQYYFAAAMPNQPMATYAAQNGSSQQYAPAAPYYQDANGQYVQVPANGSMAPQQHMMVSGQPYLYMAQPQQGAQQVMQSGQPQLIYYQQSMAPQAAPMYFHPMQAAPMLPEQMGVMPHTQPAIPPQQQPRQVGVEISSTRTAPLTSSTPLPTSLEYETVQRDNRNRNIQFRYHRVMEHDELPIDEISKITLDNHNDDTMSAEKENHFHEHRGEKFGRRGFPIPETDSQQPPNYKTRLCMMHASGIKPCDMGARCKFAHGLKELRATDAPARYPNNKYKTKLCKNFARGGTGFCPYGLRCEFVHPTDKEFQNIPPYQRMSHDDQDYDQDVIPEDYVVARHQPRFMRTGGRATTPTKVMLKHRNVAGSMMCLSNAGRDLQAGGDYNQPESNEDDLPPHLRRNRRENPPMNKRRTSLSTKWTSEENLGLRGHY

[5] = molecular target: Glucose-6-phosphate 1-dehydrogenase (Homo sapiens, UniProt P11413); assay: human G6PD enzyme inhibitors, dose response, selectivity assay for P. falciparum G6PD inhibitor project, biochemical, fluorescence (AID 504792); format: functional
Glucose-6-phosphate 1-dehydrogenase, sequence (P11413 whole entry): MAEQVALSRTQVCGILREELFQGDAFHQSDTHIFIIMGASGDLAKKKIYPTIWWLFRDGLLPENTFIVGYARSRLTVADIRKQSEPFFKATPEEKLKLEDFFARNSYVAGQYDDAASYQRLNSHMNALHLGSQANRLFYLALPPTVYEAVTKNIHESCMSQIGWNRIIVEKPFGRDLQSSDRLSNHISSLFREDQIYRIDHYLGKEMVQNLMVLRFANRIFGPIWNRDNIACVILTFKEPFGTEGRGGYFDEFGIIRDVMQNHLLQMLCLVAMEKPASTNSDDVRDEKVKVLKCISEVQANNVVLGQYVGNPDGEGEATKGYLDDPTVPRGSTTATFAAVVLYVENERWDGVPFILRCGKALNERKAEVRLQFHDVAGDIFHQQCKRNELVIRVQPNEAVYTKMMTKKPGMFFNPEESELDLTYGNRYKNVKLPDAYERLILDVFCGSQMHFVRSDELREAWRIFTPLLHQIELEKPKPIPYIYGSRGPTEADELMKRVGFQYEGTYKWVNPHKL

[6] = molecular target: FAD-linked sulfhydryl oxidase ALR (Homo sapiens, UniProt P55789); assay: inhibitors of human ALR sulfhydryl oxidase, dose response, biochemical, H2O2 detection, luminescence, cherry-pick (AID 493248)
FAD-linked sulfhydryl oxidase ALR, sequence (P55789 whole entry): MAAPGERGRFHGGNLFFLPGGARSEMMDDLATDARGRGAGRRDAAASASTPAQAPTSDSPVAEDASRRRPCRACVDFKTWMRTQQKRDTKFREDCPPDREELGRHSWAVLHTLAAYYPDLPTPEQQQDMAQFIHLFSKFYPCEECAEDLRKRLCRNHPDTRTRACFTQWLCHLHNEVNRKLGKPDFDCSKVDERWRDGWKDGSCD

[7] = growth suppression of PTEN-null colon cells, dose response, cell-based, HCT116 PTEN knockout (AID 1047); format: functional;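 further: HCT116 colon tumor cells with PTEN knocked out; cells exposed to compound for 60 hours before readout; potency for loss of cell viability measured by luminescence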
[8] = growth suppression of beta-catenin-knockout colon cells, dose response, cell-based, HCT116, human colon tumor (AID 1045); format: functional;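 further: HCT116 colon tumor cells with beta catenin knocked out; cells exposed to compound for 60 hours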
[9] = molecular target: T4, Polyadenylate-binding protein 1 (Homo sapiens, UniProt P11940); assay: PABP1 MLLE–PAM2 interaction inhibitors, dose response, miRNA deadenylation inhibitor project, biochemical, fluorescence polarization, Cy5-PAM2 peptide, secondary (AID 602260); format: functional; conditions: read-out: IC50_Mean
T4 sequence (P11940 whole entry): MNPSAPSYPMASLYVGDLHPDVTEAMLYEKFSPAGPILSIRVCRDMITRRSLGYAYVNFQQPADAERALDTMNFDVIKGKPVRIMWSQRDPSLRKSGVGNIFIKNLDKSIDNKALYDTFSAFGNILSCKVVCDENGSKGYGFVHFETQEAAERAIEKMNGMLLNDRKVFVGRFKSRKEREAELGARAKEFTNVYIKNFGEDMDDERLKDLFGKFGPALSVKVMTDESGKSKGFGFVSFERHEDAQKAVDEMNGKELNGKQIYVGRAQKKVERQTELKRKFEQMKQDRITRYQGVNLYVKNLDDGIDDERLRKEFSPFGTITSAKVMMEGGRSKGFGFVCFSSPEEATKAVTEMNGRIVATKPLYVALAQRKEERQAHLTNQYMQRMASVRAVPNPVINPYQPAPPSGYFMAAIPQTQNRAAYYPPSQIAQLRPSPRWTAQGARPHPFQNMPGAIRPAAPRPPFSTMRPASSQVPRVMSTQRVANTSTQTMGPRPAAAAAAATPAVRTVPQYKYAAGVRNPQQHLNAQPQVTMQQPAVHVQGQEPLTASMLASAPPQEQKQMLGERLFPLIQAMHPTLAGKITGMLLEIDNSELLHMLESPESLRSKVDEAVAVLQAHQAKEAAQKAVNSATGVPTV

[10] = molecular target: T4, Polyadenylate-binding protein 1; assay: PABP1 MLLE–PAM2 binding inhibitor potency, dose response, biochemical, fluorescence polarization, FITC-PAM2 peptide (AID 602259); format: functional; conditions: read-out: IC50_Mean
[11] = molecular target: Large T antigen (Simian virus 40, UniProt P03070); format: functional, Betapolyomavirus macacae;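 further: Confirmatory-stage PubChem screen for compounds that inhibit SV40 T antigen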
Large T antigen, sequence (P03070 whole entry): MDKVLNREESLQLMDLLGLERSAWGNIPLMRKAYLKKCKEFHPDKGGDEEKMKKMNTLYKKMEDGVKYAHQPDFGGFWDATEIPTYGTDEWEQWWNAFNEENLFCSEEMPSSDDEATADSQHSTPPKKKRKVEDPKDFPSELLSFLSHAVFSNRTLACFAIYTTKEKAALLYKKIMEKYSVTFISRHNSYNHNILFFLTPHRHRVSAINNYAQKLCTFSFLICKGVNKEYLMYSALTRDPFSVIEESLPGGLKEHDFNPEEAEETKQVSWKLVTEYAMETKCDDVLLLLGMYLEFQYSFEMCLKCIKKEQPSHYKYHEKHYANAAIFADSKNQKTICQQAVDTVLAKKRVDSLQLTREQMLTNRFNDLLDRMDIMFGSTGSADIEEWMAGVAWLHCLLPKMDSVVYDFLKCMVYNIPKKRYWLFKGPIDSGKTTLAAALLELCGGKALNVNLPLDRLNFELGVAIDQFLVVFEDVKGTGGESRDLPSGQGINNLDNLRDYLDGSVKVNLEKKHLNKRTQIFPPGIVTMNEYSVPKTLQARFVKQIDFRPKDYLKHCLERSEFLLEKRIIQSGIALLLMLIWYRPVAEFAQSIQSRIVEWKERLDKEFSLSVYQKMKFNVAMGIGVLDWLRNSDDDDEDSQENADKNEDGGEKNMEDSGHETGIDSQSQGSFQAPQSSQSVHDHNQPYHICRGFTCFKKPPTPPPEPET

[12] = molecular target: T5, Heat shock factor protein 1 (Mus musculus, UniProt P38532); assay: HSF1 potentiators in luciferase reporter cells, confirmation, cell-based, NIH3T3, luminescence, dose retest (AID 435004); format: functional;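 further: stress induced by proteasome inhibitor MG132 added 30 min after compound; luciferase reporter driven by HSF1 response element in NIH3T3 cells; actives raise luminescence as potentiators of the MG132 stress response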
T5 sequence (P38532 whole entry): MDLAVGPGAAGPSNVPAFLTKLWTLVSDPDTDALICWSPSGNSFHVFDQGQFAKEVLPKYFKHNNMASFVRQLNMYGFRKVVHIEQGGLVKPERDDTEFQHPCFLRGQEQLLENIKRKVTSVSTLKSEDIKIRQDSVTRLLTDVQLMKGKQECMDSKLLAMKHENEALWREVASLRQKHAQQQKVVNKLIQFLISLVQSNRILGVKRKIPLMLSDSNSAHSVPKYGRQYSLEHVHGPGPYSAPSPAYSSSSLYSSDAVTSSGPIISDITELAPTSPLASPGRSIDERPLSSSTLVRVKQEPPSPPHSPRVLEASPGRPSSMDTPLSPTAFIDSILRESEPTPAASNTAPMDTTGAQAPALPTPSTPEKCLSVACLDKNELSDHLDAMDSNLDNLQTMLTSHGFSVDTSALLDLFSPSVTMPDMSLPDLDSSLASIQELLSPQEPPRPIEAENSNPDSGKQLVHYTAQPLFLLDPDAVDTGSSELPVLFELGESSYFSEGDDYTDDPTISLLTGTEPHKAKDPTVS

[13] = system: Streptococcus sp. 'group A'; assay: growth inhibition of control SK(-) GAS strain, dose response, counter-screen for streptokinase expression inhibitor project, luminescence, kanamycin, BacTiterGlo, confirmation (AID 1900); format: functional, organism-based
[14] = system: Streptococcus; assay: Group A Streptococcus viability loss, dose response, counter-screen for streptokinase expression inhibitor project, luminescence, BacTiterGlo (AID 1915); format: functional, organism-based;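 further: potency for reduction of bacterial viability or growth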
[15] = molecular target: Cytochrome P450 2D6 (Homo sapiens, UniProt P10635);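 further: CYP2D6 member of a cytochrome P450 panel assay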
Cytochrome P450 2D6, sequence (P10635 whole entry): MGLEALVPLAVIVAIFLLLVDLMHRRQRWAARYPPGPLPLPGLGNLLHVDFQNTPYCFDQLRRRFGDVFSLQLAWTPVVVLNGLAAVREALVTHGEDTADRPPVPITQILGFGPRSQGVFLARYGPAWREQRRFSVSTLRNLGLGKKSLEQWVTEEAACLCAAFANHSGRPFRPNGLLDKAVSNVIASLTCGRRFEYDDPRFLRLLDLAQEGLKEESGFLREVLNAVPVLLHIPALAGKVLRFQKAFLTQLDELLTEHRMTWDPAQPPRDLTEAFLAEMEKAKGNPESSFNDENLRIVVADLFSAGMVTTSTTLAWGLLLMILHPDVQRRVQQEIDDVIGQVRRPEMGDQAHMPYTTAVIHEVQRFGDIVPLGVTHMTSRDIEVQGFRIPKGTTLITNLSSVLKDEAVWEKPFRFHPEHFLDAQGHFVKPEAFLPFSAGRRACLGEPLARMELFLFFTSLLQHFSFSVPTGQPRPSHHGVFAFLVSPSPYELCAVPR

SMILES: CNC(=O)c1cc2c(=O)n3cccc(C)c3nc2n(C(C)C)c1=N
IC50 [1]: 65.6 µM (active)

SMILES: CCOc1cc(C2C3=C(O)CCCC3=NC3=C2C(=O)CCC3)cc(Cl)c1O (stereo not given)
IC50 [1]: 23.9 µM (active)

SMILES: COc1ccc(-c2cc(=O)c3ccccc3[nH]2)cc1
IC50 [2]: > 79 µM (inactive)

SMILES: COc1ccc(N2C(=O)/C(=C/c3cccs3)NC2=S)cc1
IC50 [5]: > 80 µM (inactive)

SMILES: COc1ccc(/C=C/C(=O)c2ccc(NC(=O)c3cccs3)cc2)cc1OC
EC50 [7]: 3.5 µM (active)
EC50 [8]: 3.01 µM (active)

SMILES: CCOC(=O)c1nc(Nc2ccc(C(C)=O)cc2)c2ccccc2n1
IC50 [2]: 8.56 µM (active)

SMILES: Cn1c(O)nc2cc(Cl)cnc21
EC50 [3]: 27 µM (active)
EC50 [4]: 24.8 µM (active)
IC50 [9]: > 66 µM (inactive)
IC50 [10]: 35.1 µM (inactive)

SMILES: COc1ccc(C(=O)Nc2sc3c(c2C(=O)O)CC(C)(C)OC3)cc1
IC50 [5]: > 80 µM (inactive)

SMILES: COc1ccc2c(c1)O[C@H](c1ccc3c(c1)OCO3)[C@@H](OC(=O)N[C@H](C)C1CCCCC1)C2=O
EC50 [7]: 11.6 µM (active)
EC50 [8]: 10.4 µM (active)

SMILES: NC(=O)c1nsc(C(=O)N(Cc2ccco2)C(C(=O)NCc2ccccc2)c2ccc(O)cc2)c1N (stereo not given)
IC50 [2]: > 79 µM (inactive)

SMILES: CCOC(=O)c1c(C)[nH]c(C)c1C(=O)COc1ncnc2cc([N+](=O)[O-])ccc12
EC50 [12]: > 260 µM (inactive)
IC50 [2]: 26.4 µM (active)

SMILES: CC(C)n1cnc2cc(NCc3ccccc3O)ccc21
AC50 [6]: 1.44 µM (active)

SMILES: O=C(Cn1c(SCc2ccccc2)nc2ccccc21)N1CCOCC1
IC50 [1]: 48.7 µM (active)

SMILES: CC(OC(=O)CCc1nc(O)c2ccccc2n1)C(=O)NCc1ccc2c(c1)OCO2 (stereo not given)
IC50 [2]: > 79 µM (inactive)

SMILES: CC(=O)Nc1ccc(NS(=O)(=O)c2cc(-c3nnc(O)c4ccccc34)ccc2C)cc1
IC50 [2]: > 79 µM (inactive)

SMILES: NS(=O)(=O)c1ccc(CCNc2ccn3nc(-c4ccc(OCCN5CCOCC5)cc4)cc3n2)cc1
IC50 [2]: > 79 µM (inactive)

SMILES: Oc1c(Br)cc(Cl)cc1/C=N/c1ccccc1Br
IC50 [2]: > 79 µM (inactive)

SMILES: Nc1nonc1-c1nc2ccccc2n1CC(=O)N/N=C/c1ccc(-c2cccc(C(=O)O)c2)o1
IC50 [1]: 12.5 µM (active)
EC50 [13]: 4.28 µM (active)
EC50 [14]: 4.63 µM (active)

SMILES: Cc1ccc([N+](=O)[O-])cc1/N=N/c1c(C)[nH]n(C(N)=S)c1=O
AC50 [6]: 5.04 µM (active)

SMILES: Cc1ccsc1/C=N/NC(=O)c1cccc(S(=O)(=O)Nc2ccccc2Cl)c1
IC50 [5]: > 80 µM (inactive)

SMILES: Cn1c(=O)c2c(nc(N/N=C/c3ccc(OC(=O)c4ccco4)cc3)n2Cc2ccccc2Cl)n(C)c1=O
EC50 [7]: 13.4 µM (active)
EC50 [8]: 14.6 µM (active)

SMILES: COc1ccc(/C=N/NC(=O)CCCOc2ccc(Cl)cc2Cl)cc1[N+](=O)[O-]
EC50 [7]: 281 µM (active)
EC50 [8]: 59.7 µM (active)
AC50 [15]: 10 µM (inconclusive)

More lines, now with the values ahead:

IC50 [1]: 39.1 µM (active)
SMILES: CC(=O)Nc1cccc(NC(=O)C2CCCN2C(=O)Nc2cccc(C)c2)c1 (stereo not given)

IC50 [1]: 41 µM (active)
SMILES: O=C(O)CSc1c(O)nc2ccc(Cl)cc2c1-c1ccccc1

EC50 [3]: > 300 µM (not active)
EC50 [4]: > 300 µM (not active)
SMILES: CC1(OC(=O)c2cnc3ccccc3n2)C(=O)C=C2C=C(C3CC3)OC=C2C1=O (stereo not given)

AC50 [6]: 3.28 µM (active)
SMILES: CCN(CC)CCC(c1ccc(N(C)C)cc1)c1c(OC)cc(OC)c2ccc(=O)oc12 (stereo not given)

IC50 [5]: > 80 µM (inactive)
SMILES: O=C(Nc1nnc(S(=O)(=O)N2CCOCC2)s1)c1cccc(Br)c1

AC50 [6]: 0.867 µM (active)
SMILES: COc1cc(SC)ccc1C(=O)Nc1c(Cl)cncc1Cl

EC50 [3]: > 300 µM (not active)
EC50 [4]: 46.8 µM (active)
SMILES: CC1(C)c2[nH]c3ccccc3c2C[C@@H]2C(=O)N(c3ccc(F)cc3F)C(=O)N21

AC50 [6]: 7.27 µM (active)
SMILES: C=CCn1c(S)nnc1-c1cccc(OC)c1

IC50 [1]: 26.9 µM (active)
SMILES: COc1cccc(C(=O)NC2CCN(CC(=O)NCc3ccccc3OC)CC2)c1

IC50 [11]: > 100 µM (active)
AC50 [6]: 3.92 µM (active)
SMILES: CS(=O)(=O)N1CCc2cc(C(=O)Nc3ccc(O)cc3)ccc21

AC50 [6]: 0.33 µM (active)
SMILES: CCCS(=O)(=O)N1CCCC(C(=O)NCCN(CC)c2ccccc2)C1 (stereo not given)

EC50 [3]: 85.4 µM (active)
EC50 [4]: 40.8 µM (active)
SMILES: CCC(=O)OC1(C)C(=O)C=C2C=C(c3ccc(C#N)cc3)OC=C2C1=O (stereo not given)

AC50 [6]: 6.23 µM (active)
SMILES: Cc1ccc(NC(=O)Nc2cccs2)cc1
